# Results: patent US20120070511A1, “MITOCHONDRIAL INHIBITORS AND USES THEREOF” (priority 2009, published 2012)
# Columns and labels:
# Assay type in all cases: cell-based
# [1] = test system: MM cell lines (MM.1S, 8226, KMS-11)
# Procedure: Cytotoxicity assay: Cells were incubated for 24 h at 37° C. in 5% CO2 at which time drug treatments began and continued for 24 h. At this time cells were transferred to a tube followed by centrifugation at 400 g for 5 min. The pellets were resuspended in 1 ml of Hanks solution and analyzed by Vi-Cell (Beckman Coulter, Fullerton, Calif., USA) cell viability analyzer.
# [2] = test system: REH cells; assay: Western blot after 24 h CCCP (UPR, AMPK pathway, caspase 3)
# Procedure: (§1) A) Reversal of CCCP induced toxicity by either 10 μM BAPTA-AM or 50 μM of Z-VAD was investigated using trypan blue exclusion assays. The bars represent the average of triplicate samples +SD. B) ATP levels were assayed following 6 h of treatment with indicated concentrations of CCCP. The bars represent the average of triplicate samples +SD. C) Induction of UPR, activation of AMPK pathway and cleavage of caspase 3 was analyzed by western blots following 24 h treatment with indicated concentrations of CCCP in MM.1S and REH cell lines. β-Actin was used as a loading control. D) The quantification of phosphorylated AMPK and total AMPK bands in the previous panel was done using a Bio-Rad gel reader which employs Quality I software. The bars represent the fold increase in the ratio of p-AMPK/AMPK in treated versus untreated samples from three independent experiments +SD.
# (§2) Western blot analysis: Western blots were performed. Membranes were probed with monoclonal rabbit anti-GRP94, anti GRP-78, anti-PDI, anti-CHOP/GADD153, anti-cleaved caspase 3 (Cell Signaling, Danvers, Mass., USA) and monoclonal mouse anti-β-actin (Sigma, St. Louis, Mo., USA).
# [3] = test system: MM.1S and REH cell lines; assay: Mitochondrial Ca2+ (X-rhod-1) after CCCP; details: 10 μM CCCP; both cell types
# Procedure: […]. A) ψm potential, B) mitochondrial Ca^2+ and C) cytoplasmic Ca^2+ levels were measured using the fluorochromes JC-1, X-rhod-1 and indo-1, respectively. After 10 min of initial baseline measurement, CCCP was added into each well to achieve a final concentration of 10 μM and changes in fluorescence intensity was assayed for up to 2 h. In the graphs the time point of CCCP addition is marked as ‘0’. The graph is an average of triplicate samples with +SD.
# Measurement of cytoplasmic and mitochondrial calcium: Cytoplasmic Ca^2+ concentration was estimated by using the cell permeant ratiometric fluorochrome indo-1-AM (Invitrogen, Carlsbad, Calif., USA) while mitochondrial Ca^2+ was measured by X-Rhod-1-AM (Invitrogen, Carlsbad, Calif., USA). In the latter assay, to normalize mitochondrial Ca^2+ signal to mitochondria number, Mitotracker Green (Invitrogen, Carlsbad, Calif., USA) fluorescence was simultaneously analyzed. Experiments were performed in cells loaded with either 2.5 μM of indo-1 or 5 μM X-rhod-1 and 250 nM of Mitotracker at 37° C. for 45 min. Cells were, then, centrifuged at 400 g for 5 min and resuspended in their growth medium followed by distribution of 100 μl of aliquots into 96 well optical bottom plates (Nalge Nunc, Int., Rochester, N.Y., USA) and fluorescence was measured by Spectra Max Gemini Plus (Molecular Devices, Sunnyvale, Calif., USA). […]
# [4] = test system: MM.1S cells
# Procedure: as §1, §2
# [5] = test system: CHOP/GADD153 and cleaved caspase 3 in MM.1S, 8226, KMS-11; assay: Western blot of CHOP/GADD153 and cleaved caspase 3 in 3 MM cell lines; details: CCCP
# Procedure: . Induction of UPR-mediated apoptosis following treatment of 3 MM cell lines with four different mitochondrial inhibitors for various time points was assayed by western blot analysis of CHOP and cleaved caspase 3.
# as §2
# [6] = test system: CHOP/GADD153 and cleaved caspase 3 in 4 MM cell lines; assay: Western blot of CHOP/GADD153 and cleaved caspase 3 (UPR-mediated apoptosis); details: all 4 MM cell lines
# Procedure: Western Blot analysis: Cells are plated at 10^4 cell/cm^−2 for attached cells and 3×10^5/ml for suspension cells and grown under drug treatment for the indicated times. At the end of the treatment period, cells are collected and lysed with 1% SDS in 80 mM Tris-HCL (ph 7.4) buffer supplemented with a proteinase inhibitor cocktail. DNA is fragmented by sonication and protein concentrations are measured by microBCA protein assay kit (Pierce, Rockford, Ill.). Samples are mixed with 3× Laemmli sample buffer (Cell Signaling, Danvers, Mass.) and 40 μg of protein was run on a 12% SDS-polyacrylamide gel. Gels are transferred to nitrocellulose membranes (Amersham, Piscataway, N.J.) and probed with monoclonal rabbit anti-GRP94, anti GRP-78, anti-PDI, anti-CHOP/GADD153, anti-cleaved caspase 3 (Cell Signaling, Danvers, Mass.) and monoclonal mouse anti-β-actin (Sigma, St. Louis, Mo.). Following probing, membranes are washed and incubated with HRP-conjugated secondary antibody (Invitrogen, Carlsbad, Calif.). Following addition of 1:3 diluted femto-chemiluminescent substrate (Pierce, Rockford, Ill.) membranes were exposed to blue autoradiographic film (ISC bioexpress, Kaysville, Utah). Where indicated, membranes were stripped with Stripping Buffer (Pierce, Rockford, Ill.) and reprobed with anti-β-actin (Sigma-Aldrich, St. Louis, Mo.) primary antibody. When needed, the blots were quantified using Bio-Rad gel reader which employs Quality I software (Bio-Rad, Hercules, Calif.).
# [7] = test system: multiple myeloma cell lines (MM.1S, 8226, KMS-11, U266)
# Procedure: (§3) Cytotoxicity assay: Cells were incubated for 24 hr at 37° C. in 5% CO2 at which time drug treatments began and continued for 24 hr. At this time attached cells were trypsinized and combined with their respective culture media while suspension cells were directly transferred to a tube followed by centrifugation at 400 g for 5 min. The pellets were resuspended in 1 ml of Hanks solution and analyzed by Vi-Cell (Beckman Coulter, Fullerton, Calif.) cell viability analyzer.
# [8] = test system: non-myeloma cell lines (NALM6, 143B, MDA-MB-435, 1420); details: higher concentrations; all cell types
# Procedure: as §3
structure (smiles),measurement,setting,value
N#CC(C#N)=NNc1cccc(Cl)c1 [CCCP],cytotoxicity (cell death),"[1]; 24 h, all 3 MM cell lines",more toxic to MM cells as compared to non-myeloma cells
same,cell death compared among mitochondrial inhibitors,"[1]; concentrations of FIG. 13, caspase 3 cleavage and percent of cell death",more toxic than either antimycin A or oligomycin
same,CCCP concentration required for similar increase of CHOP/GADD153,"[2]; 24 h, REH",at least 10 μM
same,AMPK phosphorylation at higher doses,[2]; REH,continues to increase
same,cleaved caspase 3,"[2]; REH, even at the 10 μM dose",no cleaved caspase 3 can be detected
same,AMPK phosphorylation,"[2]; highest dose (10 μM) CCCP, REH compared to MM.1S",more phosphorylated
same,mitochondrial Ca2+,[3],lowering of Ca^2+ concentration in the mitochondrial matrix
same,CCCP concentration at which caspase 3 starts to get cleaved,"[4]; 24 h, MM cells",5 µM
same,CCCP concentration giving significant induction of CHOP/GADD153 expression,"[4]; 24 h, MM.1S",2.5 µM
same,"potency in upregulating CHOP/GADD153, MM versus B-cell leukemia",[4]; FIG. 12c,four times more potent
same,AMPK phosphorylation at higher doses,[4]; MM.1S,suppressed
same,eif2α phosphorylation and ATF4 upregulation,[4]; MM.1S treated with CCCP,not detected
same,CHOP/GADD153 induction compared among the 3 MM cell lines,[5],more profound in MM.1S and 8226 as compared to KMS-11
same,caspase 3 cleavage compared among the 3 MM cell lines,[5],more rapidly in MM.1S and 8226 versus KMS-11
same,treatment time at which CHOP/GADD153 expression is noted,[6],3 h
same,cytotoxic potency compared to the other mitochondrial inhibitors,"[7]; 24 h, MM cells",equipotency in inducing cytotoxicity in MM cells
same,order of sensitivity among MM cell lines,[7]; 24 h treatment,greater in 8226 as compared to MM.1S cells
same,cytotoxicity (cell death),"[7]; 24 h treatment, all 4 MM cell lines",more toxic to multiple myeloma cell lines as compared to other cell types
same,cytotoxicity at higher concentrations,[8],significant toxicity is induced in all cell types
